Measured values taken from patent US20060148848A1, “Compounds and methods for treating cancer and inflammation” (QLT, Inc., priority 2002, published 2006).
pIC50: −log10 of the molar value.

What was measured:
HUVEC cells [1] = experiment: Cytotoxicity assay (calcein AM cell viability), HUVEC; type: cell-based; conditions: 50 μM, approximately 24 hours
Excerpt: (§1) This procedure is used to assess the effects compounds have on various cell lines with respect to cell viability. Cell viability is quantified using calcein AM and measuring its conversion to a fluorescent product (calcein) with a fluorimeter.
(§2) The principle of this assay is based on the presence of ubiquitous intracellular esterase activity found in live cells. By enzymatic reaction of esterase, non-fluorescent cell-permeant calcein AM is converted to the intensely fluorescent calcein. The polyanionic dye calcein is retained within live cells, producing a green fluorescence in live cells. […]
(§3) Cells were collected from tissue culture flasks and trypsinized, centrifuged, resuspended and counted. […]
(§4) The calcein AM solution is prepared by added 50 μg of calcein AM crystal (m.w.=994.87 g/mol, Molecular Probes, Eugene, Oreg.) and nnhydrous DMSO (Sigma Aldrich) to make 1 mM stock and diluting stock to 2× the final desired concentration in 1×DPBS just before the assay. […] Fluorescence data was read and recorded (Fluoroskan Ascent® FL fluorimeter (excitation˜485 nm, emission˜527 nm)).
(§5) The values for replicates (usually six) are averaged and % inhibition is calculated as follows: % inhibition=100−[(AVG treatment−AVG positive control)/(AVG negative control−AVG positive control)*100]

SGK2α = target: T1, SGK2α (Homo sapiens, UniProt Q9HBY8); experiment: SGK2α in vitro kinase assay; type: biochemical; conditions: recombinant human GST-SGK2α, [γ-32P]-ATP, 15 minutes at ambient temperature
T1 construct: made in house; host or cells: baculovirus; Sf9 (virus generation) and High Five insect cells (expression)
T1 sequence (Q9HBY8 1-367): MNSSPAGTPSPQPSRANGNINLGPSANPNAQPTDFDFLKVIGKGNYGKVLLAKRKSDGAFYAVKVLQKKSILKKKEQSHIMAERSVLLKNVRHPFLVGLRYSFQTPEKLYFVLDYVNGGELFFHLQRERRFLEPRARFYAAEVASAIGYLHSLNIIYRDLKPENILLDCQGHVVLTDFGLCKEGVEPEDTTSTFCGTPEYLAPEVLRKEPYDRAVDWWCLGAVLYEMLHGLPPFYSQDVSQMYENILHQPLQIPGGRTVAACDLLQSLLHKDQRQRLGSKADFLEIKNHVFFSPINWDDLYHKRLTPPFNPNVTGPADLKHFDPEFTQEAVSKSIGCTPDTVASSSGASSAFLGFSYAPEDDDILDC
Excerpt: SGK2α cDNA was cloned from human brain cDNA library by the polymerase chain reaction (PCR) technique and subsequently inserted directly into pPCR-2.1 T/A cloning vector (Strategene). After DNA sequencing, the confirmed wild-type human SGK2α cDNA was subcloned into baculovirus expression vector pAcG2T (BD PharMingen) for recombinant protein expression in insect cells. Expression of human SGK2α as a fusion protein required that the cDNA be ligated into the polyclonal site situated in frame and downstream of the glutathione-S-transferase gene of the baculovirus transfer vector pAcG2T. The 1104 base pair SGK2α coding sequence was excised from the pPCR-2.1 T/A vector using the Bam HI and Eco RI restriction sites generated the 5′ and 3′ of the coding sequence respectively by PCR amplification. This DNA fragment was directionally subcloned in-frame into the Bam HI and Eco RI polyclonal sites of the pAcG2T vector. Positive recombinant clones of SGK2α in the pAcG2T vector were determined by restriction enzyme analysis with Bam HI and Eco RI restriction enzymes.
Active SGK2α enzyme was expressed using the baculovirus expression vector system in a two-step process. […] A complete quantitative and qualitative analysis of the protein was monitored using Coomassie blue staining and Western blot analysis using anti-GST specific antibody (Kinetek). […]

HS27 cells = experiment: Cytotoxicity assay (calcein AM cell viability), HS27; type: cell-based; conditions: 50 μM, approximately 24 hours
Excerpt: as §1, §2, §3, §4, §5

PC3 cells = experiment: Cell proliferation (3H-thymidine incorporation), PC3; type: cell-based; conditions: Homo sapiens, PC-3, 24 hours, read-out: in vitro inhibition of cell proliferation
Excerpt: (§6) This procedure (Jelinkova, R. B. et al., “Antiproliferative effect of a lectin- and anti-Thy-1.2 antibody-targeted HPMA copolymer-bound doxorubicin on primary and metastatic human colourectal carcinoma and on human colourectal carcinoma transfected with the mouse Thy-1.2 gene”, Bioconjug. Chem. (2000), Vol. 11, No. 5, pp. 664-73) is used to assess the effect compounds have on various cell lines with respect to proliferation. The rate of anchorage-independent growth of various tumour cells is quantified by measuring the amount of free isotopic thymidine that has been incorporated into the cells over a period of time. The effect of any compound to inhibit the proliferation of various tumour cells could be used as an indication of its ability to prevent disease progression in cancer.
(§7) Cultured tumour cells are harvested cells as per normal procedures: i.e. trypsinize, centrifuge and count cells. […]
(§8) After incubation, plates are observed under the microscope for obvious cell death, abnormal cell shape, crystal formation of the compound, etc. […] Finally, 100 μL of scintillation fluid is added to each well and the plates are counted in a Wallac™ 1450 Microbeta™ counter according to user manual instructions.
(§9) The amount of inhibition is determined by the following formula: % inhibition=100−[(AVG treatment−AVG positive control)/[…]]

LL-86 cells = experiment: Cytotoxicity assay (calcein AM cell viability), LL-86; type: cell-based; conditions: 50 μM, approximately 24 hours
Excerpt: as §1, §2, §3, §4, §5

HUVEC cells [2] = experiment: Cell proliferation (3H-thymidine incorporation), HUVEC; type: cell-based; conditions: Homo sapiens, 24 hours, read-out: in vitro inhibition of cell proliferation
Excerpt: as §6, §7, §8, §9

H460 cells = experiment: Cell proliferation (3H-thymidine incorporation), H460; type: cell-based; conditions: Homo sapiens, NCI-H460, 24 hours, read-out: in vitro inhibition of cell proliferation
Excerpt: as §6, §7, §8, §9

CCc1c2cc(OC)c(OC)cc2cc(=O)n1Cc1ccccc1 [2-Benzyl-1-ethyl-6,7-dimethoxy-2H-isoquinolin-3-one]
in vitro cytotoxicity (HUVEC cells [1]): 4%
pIC50 (SGK2α): 6.01
in vitro cytotoxicity (HS27 cells): 0%
inhibition at 50 µM (PC3 cells): 67%
in vitro cytotoxicity (LL-86 cells): 0%
inhibition at 50 µM (HUVEC cells [2]): 42%
inhibition at 50 µM (H460 cells): 27%
